{"source": "paper PMC8370248", "about": "“Key Metabolic Enzymes Involved in Remdesivir Activation in Human Lung Cells” (Antimicrobial Agents and Chemotherapy, 2021)", "key": {"CES1c": {"target": "T1, CES1c (Homo sapiens, UniProt P23141)", "T1 construct": "purchased Corning Incorporated (Corning, NY); host or cells: baculovirus-infected insect cells (microsomal fraction, Supersomes)", "T1 sequence (P23141 18-566 isoform P23141-3 limits assumed)": "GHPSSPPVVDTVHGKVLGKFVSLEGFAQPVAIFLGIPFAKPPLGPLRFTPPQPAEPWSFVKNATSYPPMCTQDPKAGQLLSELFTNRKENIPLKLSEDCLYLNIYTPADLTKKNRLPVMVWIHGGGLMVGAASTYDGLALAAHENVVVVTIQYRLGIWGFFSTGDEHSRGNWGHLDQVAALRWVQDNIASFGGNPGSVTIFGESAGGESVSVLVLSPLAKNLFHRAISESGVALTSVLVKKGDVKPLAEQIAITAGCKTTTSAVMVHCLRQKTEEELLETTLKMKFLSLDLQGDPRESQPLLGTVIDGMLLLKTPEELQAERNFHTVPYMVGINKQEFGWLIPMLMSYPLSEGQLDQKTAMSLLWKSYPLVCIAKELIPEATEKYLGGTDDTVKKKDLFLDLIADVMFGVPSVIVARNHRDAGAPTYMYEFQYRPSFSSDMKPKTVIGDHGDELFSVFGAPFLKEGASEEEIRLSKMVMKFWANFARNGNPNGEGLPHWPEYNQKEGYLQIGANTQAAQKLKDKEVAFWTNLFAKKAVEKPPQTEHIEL", "assay": "CES1c-catalyzed hydrolysis of RDV and control (substrate disappearance, LC-MS)", "assay_type": "in vitro ADME", "conditions": "1 μM substrate, CES 1.5 mg/ml, pH 7.4, 37°C", "procedure": "(§1) The catalytic activity of carboxylesterase 1b (CES1b), carboxylesterase 1c (CES1c), CES2, and CatA toward RDV hydrolysis was measured using protein-enriched subcellular fraction (CES isozymes) or recombinant proteins (CatA). The reaction rates were determined by monitoring the disappearance of RDV using a liquid chromatography-mass spectrometry (LC-MS) method.\n(§2) RDV or positive-control substrates (oseltamivir for CES1 or procaine for CES2) were incubated with individual Supersome preparations (final CES concentration, 1.5 mg/ml) in 0.1 M potassium phosphate buffer (pH 7.4) at 37°C. Substrates were added to a final concentration of 1 μM to initiate the reaction. The final incubation volume was 250 μl. Aliquots were removed after incubation for 0, 10, 30, 60, and 120 min. The reactions were stopped by the addition of the quench solution containing the LC-MS internal standard (IS) (labetalol). Following protein precipitation and centrifugation, 150 μl of supernatant was dried down and reconstituted with 250 μl water. All samples were analyzed by an LC-MS, and the analyte/internal standard peak area ratio (PAR) values were used for quantification. Disappearance of RDV or positive-control compounds was monitored over the incubation time period. Three experiments were conducted with two replicates in each experiment, and data are reported as averages from the three experiments.\n(§3) In all studies apart from those with CES1 and CatA with enzyme inhibitors, samples (10-μl aliquots) were injected with a Thermo Scientific autosampler. The LC instrumentation consisted of a Thermo Scientific Dionex UltiMate 3000 RS pump, and the LC column was a Waters Acquity UPLC BEH C18 (1.7 μm particle size, 2.1 by 50 mm). Mobile phases A and B were water 99.9% (vol/vol) containing 0.1% (vol/vol) formic acid, and acetonitrile 99.9% (vol/vol) containing 0.1% (vol/vol) formic acid, respectively, pumped at 0.2 ml/minute. Elution was achieved by a series of linear gradients over 2.33 min followed by reequilibration for 2.57 min. The MS instrument was a Thermo Q Exactive Hybrid Quadrupole-Orbitrap operating in positive or negative ionization mode as appropriate. This was calibrated on a weekly basis, and data were processed with GMSU 8.4.66 software by Gubbs Inc. (Alpharetta, GA). Mass tolerance of 5 ppm was used."}, "CES1b": {"target": "T2, CES1b (Homo sapiens, UniProt P23141)", "T2 construct": "purchased Corning Incorporated (Corning, NY); host or cells: baculovirus-infected insect cells (microsomal fraction, Supersomes)", "T2 sequence (P23141 18-567)": "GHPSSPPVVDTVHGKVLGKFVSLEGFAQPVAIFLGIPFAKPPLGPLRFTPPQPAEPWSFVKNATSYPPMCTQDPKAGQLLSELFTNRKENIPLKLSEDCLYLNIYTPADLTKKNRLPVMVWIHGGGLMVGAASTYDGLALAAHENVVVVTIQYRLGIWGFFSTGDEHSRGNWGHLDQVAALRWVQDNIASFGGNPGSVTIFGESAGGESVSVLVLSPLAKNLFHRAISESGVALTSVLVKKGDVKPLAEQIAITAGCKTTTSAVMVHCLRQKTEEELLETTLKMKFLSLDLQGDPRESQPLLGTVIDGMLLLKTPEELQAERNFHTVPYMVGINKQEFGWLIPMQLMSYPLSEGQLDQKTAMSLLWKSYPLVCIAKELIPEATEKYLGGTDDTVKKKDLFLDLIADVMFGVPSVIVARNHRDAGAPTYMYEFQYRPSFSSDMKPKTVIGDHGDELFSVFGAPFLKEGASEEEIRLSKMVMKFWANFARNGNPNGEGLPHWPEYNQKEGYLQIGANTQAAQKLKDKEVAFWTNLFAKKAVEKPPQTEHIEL", "assay": "CES1b-catalyzed hydrolysis of RDV and control (substrate disappearance, LC-MS)", "assay_type": "in vitro ADME", "conditions": "1 μM substrate, CES 1.5 mg/ml, pH 7.4, 37°C", "procedure": "as §1, §2, §3"}, "[1]": {"assay": "Chemical hydrolysis of MetX under acidic conditions mimicking lysosomal lumen", "assay_type": "physicochemical", "procedure": "P-N bond cleavage of RDV MetX was evaluated under acidic pH, mimicking intracellular lysosomal conditions.\nTo test the chemical stability of RDV MetX under acidic conditions (found within the lysosomal lumen) or neutral conditions (e.g., found in the cytosol of cells), 1 μM compound was incubated in a 250-μl reaction mixture consisting of 100 mM sodium acetate (pH 4.5) or 100 mM HEPES (pH 7.5). […] For reactions carried out at pH 4.5, the pH of the reaction aliquots was raised to pH 9 to 10 by addition of 7.5 μl of 0.2 M NaOH prior to addition of the quenching solution. Following protein precipitation and centrifugation, 150 μl of supernatants were dried down and reconstituted with 250 μl water. All samples were analyzed by LC-MS, and PAR values were used for quantification. Disappearance of MetX was monitored over the incubation time period. Three experiments were conducted with two replicates for each experiment, and data are reported as averages from three experiments."}, "CES2": {"target": "T3, CES2 (Homo sapiens, UniProt O00748)", "T3 construct": "purchased Corning Incorporated (Corning, NY); host or cells: baculovirus-infected insect cells (microsomal fraction, Supersomes)", "T3 sequence (O00748 27-559)": "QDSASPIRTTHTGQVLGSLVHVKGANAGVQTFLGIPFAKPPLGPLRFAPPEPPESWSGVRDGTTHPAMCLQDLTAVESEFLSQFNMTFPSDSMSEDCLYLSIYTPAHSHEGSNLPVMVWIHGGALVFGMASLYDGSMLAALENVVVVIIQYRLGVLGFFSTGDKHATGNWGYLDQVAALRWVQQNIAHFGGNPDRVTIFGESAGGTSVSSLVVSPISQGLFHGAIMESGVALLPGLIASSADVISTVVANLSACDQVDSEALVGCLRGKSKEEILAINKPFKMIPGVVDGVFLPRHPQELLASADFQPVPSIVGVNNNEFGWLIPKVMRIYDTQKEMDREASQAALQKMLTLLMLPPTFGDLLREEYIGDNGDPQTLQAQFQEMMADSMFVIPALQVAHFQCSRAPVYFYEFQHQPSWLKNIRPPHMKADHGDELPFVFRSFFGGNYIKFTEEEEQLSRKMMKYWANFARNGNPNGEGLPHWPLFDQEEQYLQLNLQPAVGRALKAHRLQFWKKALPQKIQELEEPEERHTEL", "assay": "CES2-catalyzed hydrolysis of RDV and control (substrate disappearance, LC-MS)", "assay_type": "in vitro ADME", "conditions": "CES 1.5 mg/ml, pH 7.4, 37°C", "procedure": "as §1, §2, §3"}, "CatA": {"target": "T4, CatA (Homo sapiens, UniProt P10619)", "T4 sequence (P10619 29-326 limits assumed)": "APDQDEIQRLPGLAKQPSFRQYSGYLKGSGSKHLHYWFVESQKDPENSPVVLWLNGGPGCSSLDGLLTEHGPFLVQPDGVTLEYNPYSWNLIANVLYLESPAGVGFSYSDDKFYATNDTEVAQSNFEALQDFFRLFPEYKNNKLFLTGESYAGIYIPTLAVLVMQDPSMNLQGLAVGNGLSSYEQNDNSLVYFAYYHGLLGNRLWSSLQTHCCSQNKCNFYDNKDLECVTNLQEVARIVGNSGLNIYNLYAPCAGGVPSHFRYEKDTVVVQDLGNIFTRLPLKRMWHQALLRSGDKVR", "T4 sequence (P10619 327-480 limits assumed)": "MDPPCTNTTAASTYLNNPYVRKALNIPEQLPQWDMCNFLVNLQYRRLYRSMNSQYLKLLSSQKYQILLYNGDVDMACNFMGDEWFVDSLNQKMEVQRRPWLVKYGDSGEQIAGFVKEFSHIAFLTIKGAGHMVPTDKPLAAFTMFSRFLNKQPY", "assay": "CatA-catalyzed hydrolysis of RDV and control (substrate disappearance, LC-MS)", "procedure": "as §1\nFollowing protein precipitation and centrifugation, 150 μl of supernatant was dried down and reconstituted with 250 μl water. […] Three experiments were conducted with two replicates in each experiment, and data are reported as averages from the three experiments.\nas §3"}, "HINT1": {"target": "T5, HINT1 (Homo sapiens, UniProt P49773)", "T5 construct": "purchased Abcam (Cambridge, MA)", "T5 sequence (P49773 whole entry)": "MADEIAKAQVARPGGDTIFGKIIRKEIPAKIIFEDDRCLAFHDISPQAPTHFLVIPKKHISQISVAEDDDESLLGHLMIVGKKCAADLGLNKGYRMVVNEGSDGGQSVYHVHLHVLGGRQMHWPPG", "assay": "HINT1-catalyzed hydrolysis of RDV MetX and positive control", "assay_type": "in vitro ADME"}, "[2]": {"conditions": "1 μM compound, 100 mM sodium acetate pH 4.5"}}, "note": "Entries after “also recorded” stand apart in the source; their conditions may differ. Structures can show the parent of a compound that is named as a salt.", "data": [{"smiles": "CCOC(=O)C1=C[C@@H](OC(CC)CC)[C@H](NC(C)=O)[C@@H](N)C1", "note": "[Oseltamivir]", "values": [{"measurement": "Activity for amidate ester cleavage, CES1c", "setting": "CES1c", "value": "1.5 ± 0.2 × 10^−2 nmol/min/mg"}, {"measurement": "half-life at 1 μM", "setting": "CES1c; human, CES1c Supersomes (protein-enriched subcellular fraction), read-out: t1/2, CES1c (converted)", "value": 31, "unit": "min"}, {"measurement": "Activity for amidate ester cleavage, CES1b", "setting": "CES1b", "value": "2.3 ± 0.1 × 10^−2 nmol/min/mg"}, {"measurement": "half-life at 1 μM", "setting": "CES1b; human, CES1b Supersomes (protein-enriched subcellular fraction), read-out: t1/2, CES1b (converted)", "value": 20, "unit": "min"}]}, {"smiles": "CC(Cn1cnc2c(N)ncnc21)OCP(=O)(O)NC(C)C(=O)O", "note": "(stereo not shown) [TAF MetX]", "values": [{"measurement": "Lysosomal hydrolysis at pH 4.5", "setting": "[1]; [2]", "value": "1.2 ± 0.6 × 10^−3 nmol/min"}, {"measurement": "t1/2, lysosomal hydrolysis at pH 4.5", "setting": "[1]; [2]", "value": "16 ± 7", "unit": "min"}]}, {"smiles": "CCN(CC)CCOC(=O)c1ccc(N)cc1", "note": "[Procaine]", "values": [{"measurement": "Activity for amidate ester cleavage, CES2", "setting": "CES2; 1 μM substrate", "value": "4.4 ± 0.8 × 10^−3 nmol/min/mg"}, {"measurement": "half-life at 1 μM", "setting": "CES2; human, CES2 Supersomes (protein-enriched subcellular fraction), pH 7.4, 1 μM substrate, read-out: t1/2, CES2 (converted)", "value": 110, "unit": "min"}]}, {"smiles": "CC(C)OC(=O)[C@H](C)N[P@](=O)(CO[C@H](C)Cn1cnc2c(N)ncnc21)Oc1ccccc1", "note": "[TAF (GS-7340), tenofovir alafenamide fumarate]", "values": [{"measurement": "Activity for amidate ester cleavage, CatA", "setting": "CatA; 1 μM substrate, 5 nM CatA, pH 6.5, 37°C", "value": "254 ± 154", "unit": "nmol/min/mg"}, {"measurement": "half-life at 1 μM", "setting": "CatA; human, pH 6.5", "value": 13, "unit": "min"}]}, {"smiles": "C[C@H](N[P@@](=O)(O)OC[C@H]1O[C@@](C#N)(c2ccc3c(N)ncnn23)[C@H](O)[C@@H]1O)C(=O)O", "note": "[RDV MetX]", "values": [{"measurement": "HINT1 hydrolysis", "setting": "HINT1; 1 μM substrate, 250 nM HINT1, pH 7.2, 37°C", "value": "32 ± 12", "unit": "nmol/min/mg"}, {"measurement": "half-life at 1 μM", "setting": "HINT1; human, recombinant HINT1, 1 μM substrate, 250 nM HINT1, pH 7.2, 37°C, read-out: t1/2, HINT1 hydrolysis (converted)", "value": 5.5, "unit": "min"}, {"measurement": "HINT1 metabolism rate relative to GS-6620 MetX", "setting": "HINT1; times faster than known substrate GS-6620 MetX", "value": 6, "unit": "times"}, {"measurement": "Lysosomal hydrolysis at pH 4.5", "setting": "[1]; [2]", "value": "0 ± 0", "unit": "nmol/min"}, {"measurement": "P-N bond cleavage under acidic pH", "setting": "[1]; acidic pH mimicking intracellular lysosomal conditions", "value": "no RDV MetX hydrolysis product was detectable; also recorded: completely resistant to acid hydrolysis"}, {"measurement": "half-life at 1 μM", "setting": "[1]; buffer, pH 4.5", "value": "> 167", "unit": "h"}]}]}
